Experimental data from US20030096394A1, “Laccase activity enhancers” (priority 2001, published 2003).

Assays:
[1] = system: laccase (NS51003); experiment: Chicago Blue (Direct Blue 1) dye bleaching assay for laccase mediators; type: biochemical, Aspergillus sp.; conditions: potential mediator 0.1 micromole/ml, decrease in absorbance at 610 nm
Protocol: The Chicago Blue Dye, also known as Direct Blue 1 or DB 1, was used to identify these compounds. The Chicago Blue Dye is fully described by Schneider et al. in U.S. Pat. No. 5,885,304, which is hereby incorporated by reference, and has the following formula. [drawing 10]
Each of the test compounds (i.e., potential mediators) was dissolved in water, or in ethanol if the potential mediator was not water soluble, and then mixed with a phosphate buffer and a Chicago Blue solution. […] The change in the absorbance at A610 nm was measured immediately using a UV-VIS spectrophotometer (UV-1201, Shimadzu Scientific Instruments) after the enzyme was added. The decrease in absorbance was recorded at 30-second intervals for 5 minutes and was used to estimate the efficiency of the mediator.
Experiments were conducted at pH levels of 5.5 and 7.0. The last column gives the decrease in absorbance at 610 nm. The larger the decrease in absorbance at 610 nm, the better is the ability to discolor the dye.

[2] = Appearance of potential mediator in water; type: physicochemical
[3] = system: laccase (NS51003, Novozymes A/S) and xylanase (Pulpzyme HC, Novozymes A/S); experiment: Bleaching of Chicago Blue at pH 7.0 with laccase and xylanase combination; type: biochemical; conditions: mediator 20 μM
Protocol: In the following example, the enzyme enhancing agent N-benzylidenebenzylamine was used as a mediator for a laccase to enhance the bleaching of Chicago Blue at pH 7.0 in the presence of a laccase and a xylanase.
The activity of the xylanase (Pulpzyme HC, Novozymes A/S) is 1000 units per ml enzyme solution. One xylanase unit is defined as the amount of enzyme which, under standard conditions (pH 9.0, 50° C., 30 minutes of incubation), release one micromole of the dye from a dyed RBB xylan.
N-Benzylidenebenzylamine was dissolved in ethanol and then mixed with a phosphate buffer and a Chicago Blue solution. A solution of laccase (NS51003, Novozymes A/S) and xylanase (Pulpzyme HC, Novozymes A/S) was added to make 1 ml of the final solution, containing 20 uM of the mediator, 20 mM buffer at pH 7.0 and Chicago Blue solution, with absorbance at A610 nm between 0.6 to 0.8. After the enzyme was added, the change in the absorbance was measured immediately using a UV spectrophotometer (UV-1201, Shimadzu Scientific Instruments). The decrease in absorbance was recorded after 3 minutes and was used to estimate the results of bleaching.

For `Nc1ccccn1` [2-Aminopyridine], the “ΔmA610 (3 min)” value ([1]; pH 5.5) was 3, the “ΔmA610 (3 min)” value ([1]; pH 7.0) was 2 and the Appearance in water ([2]; Table 1 (pH 5.5 series)) was “light brown”. For the same compound, the Appearance in water ([2]; Table 2 (pH 7.0 series)) was “light brown”.

With `O=C(O)C=Cc1ccccc1Cl` [2-Chlorocinnamic acid] the “ΔmA610 (3 min)” value ([1]; pH 5.5) was 9 and the Appearance in water ([2]; Table 1 (pH 5.5 series)) was “cloudy”.

For `O=C(O)C=Cc1ccccc1O` [2-Hydroxycinnamic acid], the “ΔmA610 (3 min)” value ([1]; pH 5.5) was 5 and the Appearance in water ([2]; Table 1 (pH 5.5 series)) was “clear”.

With `COc1cc(C=CC(=O)O)cc(OC)c1OC` [3,4,5-Trimethoxycinnamic acid] the “ΔmA610 (3 min)” value ([1]; pH 5.5) was 5 and the Appearance in water ([2]; Table 1 (pH 5.5 series)) was “cloudy”.

With `COc1ccc(C=CC(=O)O)cc1OC` [3,4-Dimethoxycinnamic acid] the “ΔmA610 (3 min)” value ([1]; pH 5.5) was 0 and the Appearance in water ([2]; Table 1 (pH 5.5 series)) was “clear”.

With `COc1cc(C=CC(=O)O)cc(OC)c1O` [3,5-Dimethoxy-4-hydroxycinnamic acid] the “ΔmA610 (3 min)” value ([1]; pH 5.5) was 491 and the Appearance in water ([2]; Table 1 (pH 5.5 series)) was “clear”.

With `O=C(O)C=Cc1cccc(Cl)c1` [3-Chlorocinnamic acid] the “ΔmA610 (3 min)” value ([1]; pH 5.5) was 8 and the Appearance in water ([2]; Table 1 (pH 5.5 series)) was “cloudy”.

In the case of `COc1ccc(C=CC(=O)O)cc1O` [3-Hydroxy-4-methoxycinnamic acid], the “ΔmA610 (3 min)” value ([1]; pH 5.5) is reported as 94 and the Appearance in water ([2]; Table 1 (pH 5.5 series)) is reported as “clear”.

In the case of `O=C(O)C=Cc1cccc(O)c1` [3-Hydroxycinnamic acid], the “ΔmA610 (3 min)” value ([1]; pH 5.5) is reported as 7 and the Appearance in water ([2]; Table 1 (pH 5.5 series)) is reported as “clear”.

For `COc1cccc(C=CC(=O)O)c1` [3-Methoxycinnamic acid], the “ΔmA610 (3 min)” value ([1]; pH 5.5) was 4 and the Appearance in water ([2]; Table 1 (pH 5.5 series)) was “clear”.

For `CN(C)c1ccc(C=CC(=O)O)cc1` [4-(Dimethylamino)cinnamic acid], the “ΔmA610 (3 min)” value ([1]; pH 5.5) was 519 and the Appearance in water ([2]; Table 1 (pH 5.5 series)) was “clear, yellow”.

With `Nc1ccc(C=CC(=O)O)cc1` [4-Aminocinnamic acid] the “ΔmA610 (3 min)” value ([1]; pH 5.5) was 43 and the Appearance in water ([2]; Table 1 (pH 5.5 series)) was “clear”.

In the case of `O=C(O)C=Cc1ccc(Cl)cc1` [4-Chlorocinnamic acid], the “ΔmA610 (3 min)” value ([1]; pH 5.5) is reported as 13 and the Appearance in water ([2]; Table 1 (pH 5.5 series)) is reported as “cloudy”.

In the case of `COc1cc(C=CC(=O)O)ccc1O` [4-Hydroxy-3-methoxycinnamic acid], the “ΔmA610 (3 min)” value ([1]; pH 5.5) is reported as 441.

For `O=C(O)C=Cc1ccc(O)cc1` [4-Hydroxycinnamic acid], the “ΔmA610 (3 min)” value ([1]; pH 5.5) was 42 and the Appearance in water ([2]; Table 1 (pH 5.5 series)) was “clear”.

With `COc1ccc(C=CC(=O)O)cc1` [4-Methoxycinnamic acid] the “ΔmA610 (3 min)” value ([1]; pH 5.5) was 6 and the Appearance in water ([2]; Table 1 (pH 5.5 series)) was “cloudy”.

For `O=C(O)C=Cc1ccc([N+](=O)[O-])cc1` [4-Nitrocinnamic acid], the “ΔmA610 (3 min)” value ([1]; pH 5.5) was 0 and the Appearance in water ([2]; Table 1 (pH 5.5 series)) was “cloudy”.

With `O=C(O)C=Cc1ccccc1` [Cinnamic acid] the “ΔmA610 (3 min)” value ([1]; pH 5.5) was 3 and the Appearance in water ([2]; Table 1 (pH 5.5 series)) was “clear”.

For `CCOC(=O)c1ccccc1O` [Ethyl Salicylate], the “ΔmA610 (3 min)” value ([1]; pH 5.5) was 2 and the Appearance in water ([2]; Table 1 (pH 5.5 series)) was “cloudy”.

In the case of `O=C1Nc2ccccc2C1=O` [Isatin], the “ΔmA610 (3 min)” value ([1]; pH 5.5) is reported as 6 and the Appearance in water ([2]; Table 1 (pH 5.5 series)) is reported as “clear”.

In the case of `Nc1nc(N)nc(N)n1` [Melamine], the “ΔmA610 (3 min)” value ([1]; pH 5.5) is reported as 128 and the Appearance in water ([2]; Table 1 (pH 5.5 series)) is reported as “cloudy”.

With `C(=NCc1ccccc1)c1ccccc1` [N-benzylidene benzylamine] the “ΔmA610 (3 min)” value ([1]; pH 5.5) was 28, the “ΔmA610 (3 min)” value ([1]; pH 7.0) was 2 and the “mA610 (3 min)” value ([3]; laccase 0% v/v, xylanase 0.5% v/v) was 112. For the same compound, the “mA610 (3 min)” value ([3]; laccase 0.5% v/v, xylanase 0% v/v) was 11, the “mA610 (3 min)” value ([3]; laccase 0.5% v/v, xylanase 0.5% v/v) was 163 and the Appearance in water ([2]; Table 1 (pH 5.5 series)) was “clear”. For the same compound, the Appearance in water ([2]; Table 2 (pH 7.0 series)) was “clear”.

With `O=C(O)c1ccccc1O` [Salicylic acid] the “ΔmA610 (3 min)” value ([1]; pH 5.5) was 11 and the Appearance in water ([2]; Table 1 (pH 5.5 series)) was “clear”.

In the case of `COc1ccc(CO)cc1OC` [Veratryl alcohol], the “ΔmA610 (3 min)” value ([1]; pH 5.5) is reported as 3 and the Appearance in water ([2]; Table 1 (pH 5.5 series)) is reported as “clear”.
